Some test systems named below: A498 renal; A549 NSCLC; BT-549 breast; HCT-116 colon; HOP-92 NSCLC; LOX IMVI melanoma; M14 melanoma; OVCAR-3 ovarian; OVCAR-8 ovarian; UACC-62 melanoma.
Common to all, as to test: NCI-60 cell line screen, 48 h

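Step 1: Grow cells in 96-well plates. Step 2: Expose to compound for 48 hours at 5 concentrations. Step 3: Interpolate endpoints linearly; if unreached, use highest concentration. At the TGI there is no net growth.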

On to `Cc1ccc(-c2cc(-c3ccco3)c(C#N)c(=S)[nH]2)cc1`, for which the TGI in the assay with A498 renal, in the assay on A549 NSCLC, in the assay with BT-549 breast, in the assay on HCT-116 colon, with HOP-92 NSCLC and in the assay with LOX IMVI melanoma was more than 100 µM each time. In addition, the TGI in the assay on M14 melanoma, with OVCAR-3 ovarian, in the assay on OVCAR-8 ovarian and in the assay on UACC-62 melanoma was more than 100 µM in each case.

Consider `CCOC1C=CC(=O)C(CO)O1` (stereo not given), for which the TGI was 49.4 µM with A498 renal; 34.9 µM with A549 NSCLC; 26.1 µM with BT-549 breast; 17.4 µM in the assay on HCT-116 colon; 8.29 µM with HOP-92 NSCLC; 17.8 µM in the assay with LOX IMVI melanoma. In addition, the TGI was 31.8 µM with M14 melanoma, 19.1 µM in the assay with OVCAR-3 ovarian, 26 µM in the assay with OVCAR-8 ovarian and 25.9 µM in the assay on UACC-62 melanoma.

Regarding `Cc1ccc2cccc(-c3cccc4ccccc34)c2n1`, the TGI was 46 µM in the assay with A498 renal; more than 100 µM with A549 NSCLC; more than 100 µM in the assay with BT-549 breast; 95 µM in the assay on HCT-116 colon; 62.1 µM in the assay with HOP-92 NSCLC; 31.3 µM with LOX IMVI melanoma. Besides, the TGI is 55.6 µM with M14 melanoma, more than 100 µM in the assay on OVCAR-3 ovarian, 57.7 µM in the assay on OVCAR-8 ovarian and 61.9 µM in the assay with UACC-62 melanoma.

On to `CC(=O)Nc1nc(Cl)cc(NCC2(CO)CCC2)n1`, for which the TGI in the assay on A498 renal, with A549 NSCLC, in the assay on BT-549 breast, in the assay with HCT-116 colon, in the assay with HOP-92 NSCLC and with LOX IMVI melanoma was more than 100 µM in each case. The TGI in the assay on M14 melanoma, in the assay with OVCAR-3 ovarian, in the assay on OVCAR-8 ovarian and in the assay with UACC-62 melanoma was more than 100 µM each time.

For `Cc1c2cccc-2c2cc(O)c3ccccc3c2n1-c1ccc(N(C)C)cc1`, the TGI in the assay with A498 renal was 30.7 µM; in the assay on A549 NSCLC it was 31.6 µM; with BT-549 breast, 23.3 µM; with HCT-116 colon, 35.4 µM; with HOP-92 NSCLC, 8 µM; in the assay on LOX IMVI melanoma it was 27.8 µM. Moreover, the TGI in the assay on M14 melanoma was found to be 27.9 µM; with OVCAR-3 ovarian, 19.1 µM; in the assay on OVCAR-8 ovarian, 33.8 µM; with UACC-62 melanoma, 29.5 µM.

In the case of `COC(=O)/C=C(/C=C1/C(C#N)=C(N)N(c2ccc(Cl)cc2)C1(C)/C(=C\C(=O)OC)C(=O)OC)C(=O)OC` (stereo not given), the TGI in the assay on A498 renal was more than 100 µM; with A549 NSCLC, more than 100 µM; with BT-549 breast, 30.2 µM; with HCT-116 colon it was 31.2 µM; in the assay with HOP-92 NSCLC, 48 µM; in the assay on LOX IMVI melanoma, 32.4 µM. Besides, the TGI in the assay with M14 melanoma was 39.1 µM; in the assay with OVCAR-3 ovarian it was 42.3 µM; in the assay with OVCAR-8 ovarian it was 33.7 µM; with UACC-62 melanoma it was 27.4 µM.

As to `Cn1nc(-c2ccc(S(=O)(=O)/N=C(\NN)Nc3ccc(Cl)cc3)s2)cc1C(F)(F)F`, the TGI in the assay on A498 renal amounted to 31 µM; in the assay on A549 NSCLC it was 29.3 µM; in the assay with BT-549 breast, 33.3 µM; with HCT-116 colon it was 29.2 µM; with HOP-92 NSCLC, 40.2 µM; in the assay on LOX IMVI melanoma it was 34.2 µM. Further, the TGI was 31.5 µM in the assay on M14 melanoma, 36.4 µM with OVCAR-3 ovarian, 43 µM with OVCAR-8 ovarian and 31.1 µM with UACC-62 melanoma.

In the case of `COc1ccc2nc(NC(=O)/C(C#N)=C/c3ccccc3)sc2c1`, the TGI with A498 renal, in the assay with A549 NSCLC, with BT-549 breast, with HCT-116 colon, with HOP-92 NSCLC and in the assay with LOX IMVI melanoma was more than 100 µM in each case. Also, the TGI in the assay with M14 melanoma, in the assay on OVCAR-3 ovarian, in the assay with OVCAR-8 ovarian and in the assay on UACC-62 melanoma was more than 100 µM throughout.

For `CCOC(=O)c1c(N2CCCC2)[nH]c(=O)c(C(c2ccc(OC)cc2)c2c(O)c(C(=O)OCC)c(N3CCCC3)[nH]c2=O)c1O`, the TGI with A498 renal was more than 100 µM; with A549 NSCLC it was more than 100 µM; with BT-549 breast, more than 100 µM; with HCT-116 colon, more than 100 µM; in the assay on HOP-92 NSCLC, 58.6 µM; in the assay with LOX IMVI melanoma, more than 100 µM. In addition, the TGI with M14 melanoma, with OVCAR-3 ovarian, in the assay with OVCAR-8 ovarian and in the assay with UACC-62 melanoma was more than 100 µM in each case.

As for `CC(C)Oc1cccc(N2C(n3ccnc3)=Nc3ccncc3S2(=O)=O)c1`, the TGI stood at 31.8 µM in the assay on A498 renal; 37.2 µM in the assay with A549 NSCLC; 29 µM with BT-549 breast; 26.8 µM in the assay with HCT-116 colon; 25.7 µM in the assay on HOP-92 NSCLC; 31.9 µM in the assay on LOX IMVI melanoma. The TGI with M14 melanoma is 28.2 µM; with OVCAR-3 ovarian, 21.9 µM; in the assay with OVCAR-8 ovarian, 40.7 µM; in the assay on UACC-62 melanoma, 29.2 µM.

In the case of `O=C(/C=C/c1ccc(O)c(O)c1)OCCc1ccc2ccccc2c1`, the TGI came to 28.4 µM in the assay on A498 renal; 24.9 µM in the assay with A549 NSCLC; 15.7 µM in the assay with BT-549 breast; 17.9 µM with HCT-116 colon; 19.6 µM in the assay with HOP-92 NSCLC; 20.8 µM with LOX IMVI melanoma. The TGI in the assay with M14 melanoma was found to be 16.9 µM; in the assay with OVCAR-3 ovarian it was 12.4 µM; in the assay on OVCAR-8 ovarian, 26.6 µM; in the assay with UACC-62 melanoma, 13.9 µM.

As for `CN(C)CCN(c1ccccn1)c1ccccn1`, the TGI in the assay with A498 renal, in the assay on A549 NSCLC, in the assay with BT-549 breast, in the assay with HCT-116 colon, in the assay with HOP-92 NSCLC and with LOX IMVI melanoma was more than 100 µM in each case. In addition, the TGI in the assay with M14 melanoma, with OVCAR-3 ovarian, in the assay on OVCAR-8 ovarian and with UACC-62 melanoma was more than 100 µM in each case.

Values taken from PubChem BioAssay (NCI).
